Measured values taken from patent US7361643B2, “Methods for inhibiting angiogenesis” (University of Puerto Rico, priority 2000, dated 2008).
Entries after “also recorded” stand apart in the source; their conditions may differ.

What was measured:
protein N-glycosylation = conditions: control cells and isoproterenol-treated cells, BANERJEE et al. (1993); cited from earlier work
[1] = system: bovine adrenal medullary microvascular endothelial cells; test: Capillary endothelial cell growth and proliferation (cell count in hemacytometer); assay type: cell-based
Method: Cells in the amount of 2.0×10^4 were seeded per well in 24-well clusters in 1 ml complete EMEM containing 10% (v/v) serum and allowed to grow for 72 hours. Media were removed and the cells were washed twice with phosphate-buffer saline, pH 7.4 (PBS). Cells were synchronized by incubating for 48 hours in 2 mM hydroxyurea in serum-free EMEM with glutamine (2 mM) and one-third of penicillin-streptomycin used in a regular culture condition, followed by incubating 24 hours in serum-free EMEM, as discussed in CAO et al., “Modified Method of Mammalian Cell Synchronization Improves Yield and Degree of Synchronization”, Exp. Cell Res., 193:405-410 (1991), the disclosure of which is herein incorporated by reference in its entirety.
For proliferation assay, cells were trypsinized and counted in a hemacytometer. Viability of cells was determined by trypan blue (0.4% (v/v)) exclusion. Statistical analysis was carried out by StatView II software (Macintosh). Quantitation of cellular differentiation was carried out by observing under a Nikon AlphaShot inverted microscope, and counting the number of capillary lumen-like structures in five randomly selected fields per sample.
Synchronized cells, as described in Example 1, were cultured at 37° C. in complete EMEM containing fetal bovine serum (1% (v/v), 2% (v/v), or 10% (v/v), or complete EMEM with 2% (v/v) fetal bovine serum containing 1 ng/ml −100 ng/ml of bFGF/FGF-2, or containing 0.5 μg/ml to 5.0 μg/ml tunicamycin (lot number 10922120-07 from Boehringer-Mannheim, Indianapolis, Ind.). In each case, the cellular growth and proliferation was monitored by trypan blue exclusion, by counting the cell number, and by their ability to process through the cell cycle by flow cytometry.
Proliferation and Differentiation of Capillary Endothelial Cells: 2.0×10^4 cells were seeded per well in 24-well clusters in 1 ml complete EMEM containing 10% (v/v) serum and allowed to grow for 72 hours. Media were removed and the cells were washed twice with phosphate-buffer saline, pH 7.4 (PBS). […] Cells were routinely monitored by light microscopy. For proliferation assay, cells were trypsinized and counted in a hemacytometer. Viability of cells was determined by trypan blue (0.4% (v/v)) exclusion. […] Quantitation of cellular differentiation was carried out by observing under a Nikon AlphaShot inverted microscope, and counting the number of capillary lumen-like structures in five randomly selected fields per sample. The results were expressed as percent of its corresponding control after normalization of cell numbers. Analysis of Cell Cycle by Flow Cytometry: Assessment of the cell cycle was determined by propidium iodide staining of fixed cell nuclei followed by flow cytometry in a FacSort (Beckton Dickinson) according to the method of Krishan (1975) as modified by Vindelov (1977), as discussed in KRISHAN, “Rapid Flow Cytometric Analysis of Mammalian Cell Cycle by Propidium Iodide Staining”, J. Cell Biol. 66:188-195 (1975); and VINDELOV, “Flow Cytometric Analysis of Nuclear DNA in Cells from Solid Tumors and Cell Suspensions”, Virchows Arch (B), 24:227-231 (1977), the disclosures of which are herein incorporated by reference in their entireties. […]

In the case of tunicamycin, the glycosylation (protein N-glycosylation) is given as “reduced glycosylation”, the “effect on cell number / proliferation” value ([1]; 1 μg/ml tunicamycin, 2% (v/v) serum, monitored up to 5 days) is given as “reduced the cell proliferation; also recorded: number of cells started declining; also recorded: started declining, and almost disappeared” and the “reversibility of growth reduction” value ([1]; tunicamycin 0.5-5.0 μg/ml) is given as “reversible”.
